# Reference: US9040568B2, “Pharmaceutical compositions for the treatment of pain” (AbbVie Inc., priority 2009, dated 2015)
# Experiments:
# [1] = system: nerve injury induced mechanical allodynia; experiment: Chung model of neuropathic pain (L5-L6 spinal nerve ligation, tactile allodynia, von Frey); format: in vivo, rat
# Description: To assess whether α4β2 PAM can increase antinociceptive responses of agonists in vivo, the following study was conducted. The materials and methods used to accomplish the study follow.
# Male Sprague-Dawley rats (Charles River, Wilmington, Mass.) weighing 120-150 grams at time of surgery were utilized. These animals were group housed in AAALAC approved facilities at Abbott Laboratories in a temperature-regulated environment with lights on between 0700 and 2000 hours. Food and water was available ad libitum except during testing. All animal handling and experimental protocols were approved by an institutional animal care and use committee (IACUC). All experiments were performed during the light cycle.
# 5[(2R)-Azetidin-2-ylmethoxy]-2-chloropyridine (Compound A, 1-100 nmol/kg) and 3-(3-pyridin-3-yl)-1,2,4-oxadiazol-5-yl)benzonitrile (α4β2 PAM Compound 1, 1-35 μmol/kg, i.p.) was used. Compound A and D was prepared in saline and injected in solution in a volume of 2 ml/kg body weight 30 minutes before behavioral evaluation. Compound 1,3-(3-(pyridin-3-yl)-1,2,4-oxadiazol-5-yl)benzonitrile, was prepared in 30% hydroxybetacyclodextrin and injected in solution in a volume of 4 ml/kg body weight immediately before Compound A. For studies with Compound D, the doses tested ranged from 0.3-30 μmol/kg i.p.
# To produce neuropathic pain, tight ligation of the L5-L6 spinal nerves was performed. As previously described in detail by Kim and Chung (Kim S H and Chung J M (1992), Pain 50: 355), following sterilization procedures, a 1.5 cm incision was made dorsal to the lumbosacral plexus. The paraspinal muscles (left side) were separated from the spinous processes, the L5 and L6 spinal nerves isolated, and tightly ligated with 3-0 silk thread. Following hemostasis, the wound was sutured and coated with antibiotic ointment. The rats were allowed to recover and then placed in a cage with soft bedding for 7-14 days before behavioral testing for mechanical allodynia.
# Tactile allodynia was measured using calibrated (force; g) von Frey filaments (Stoelting, Wood Dale, Ill.). Briefly, rats were placed into individual plexiglass containers and allowed to acclimate for 15-20 minutes before testing. Withdrawal threshold was determined by increasing and decreasing stimulus intensity and estimated using a Dixon non-parametric test (Chaplan et al., 1994; Chaplan S R, Bach F W, Pogrel J W, Chung J M and Yaksh T L (1994) J Neurosci Methods 53:55-63). Only rats with threshold scores<4.5 g were considered allodynic and utilized in further testing. A percent of maximal possible effect (% M.P.E.) of the tested compounds was calculated according to the formula: ([post-drug threshold]-[baseline threshold])/([maximum threshold]-[baseline threshold])×100%, where maximum threshold was equal to 15 g.
# Analysis of the in vivo data was carried out using analysis of variance. Where appropriate, Bonferroni's Multiple Comparison Test was used for post-hoc analysis. The level of significance was set at p less than 0.05. Data are presented as mean±S.E.M.
# [2] = target: T1, human α3β4 nicotinic acetylcholine receptor subtype expressed in HEK-293 cells (Homo sapiens, UniProt P30926+P32297); experiment: Calcium flux assay (FLIPR) in HEK-293 cells expressing human α3β4; format: cell-based; details: agonists Compound A and Compound B
# T1 construct: expressed in transfected cells
# Description: Calcium Flux Assays Using Cells Expressing nAChR Subtypes
# Human embryonic kidney (HEK) 293 cells stably expressing human α4β2 or α3β4 combinations are grown to confluency in 162 cm^2 tissue culture flasks in DMEM media supplemented with 10% FBS and 25 μg/ml zeocin and 200 μg/ml hygromycin B. IMR-32 neuroblastoma cells (ATCC) are grown to confluency in 162 cm^2 tissue culture flasks in minimum essential media supplemented with 10% FBS and 1 mM sodium pyruvate, 1% non-essential amino acids and 1% antibiotic-antimycotic. […] Calcium flux was measured using calcium-3 assay kit (Molecular Devices, Sunnyvale, Calif.) or fluo-4 (Invitrogen). […] The cells were loaded with 100 μl of the dye per well and incubated at room temperature for up to one hour for HEK 293 clonal stable cell lines or 30 minutes-45 minutes at 37° C. for IMR-32 cells Fluorescence measurements were read simultaneously from all the wells by a Fluorometic Imaging Plate Reader (FLIPR) at an excitation wavelength of 480 nm and an emission wavelength of 520 nm. Baseline fluorescence was measured for the first 6 seconds at which 3× concentrations of modulator/test compounds were added to the cell plate at 50 μl and incubated for five minutes. The fluorescence intensity was captured every second for the first 1 minute followed by every 5 seconds for an additional 4 minutes. […]
# T1 sequence (P32297 32-505): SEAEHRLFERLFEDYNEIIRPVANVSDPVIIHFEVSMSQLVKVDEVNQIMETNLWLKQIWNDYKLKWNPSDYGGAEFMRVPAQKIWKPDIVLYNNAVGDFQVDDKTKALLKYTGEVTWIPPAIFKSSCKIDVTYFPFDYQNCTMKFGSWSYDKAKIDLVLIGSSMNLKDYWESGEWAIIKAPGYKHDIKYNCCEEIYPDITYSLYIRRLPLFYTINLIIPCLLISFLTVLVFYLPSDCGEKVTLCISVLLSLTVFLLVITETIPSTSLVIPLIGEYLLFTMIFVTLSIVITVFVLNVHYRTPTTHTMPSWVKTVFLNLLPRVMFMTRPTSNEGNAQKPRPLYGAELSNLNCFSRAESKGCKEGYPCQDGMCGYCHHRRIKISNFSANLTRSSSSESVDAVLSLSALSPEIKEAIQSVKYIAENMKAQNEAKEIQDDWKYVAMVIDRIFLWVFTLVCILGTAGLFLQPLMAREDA
# T1 sequence (P30926 22-498): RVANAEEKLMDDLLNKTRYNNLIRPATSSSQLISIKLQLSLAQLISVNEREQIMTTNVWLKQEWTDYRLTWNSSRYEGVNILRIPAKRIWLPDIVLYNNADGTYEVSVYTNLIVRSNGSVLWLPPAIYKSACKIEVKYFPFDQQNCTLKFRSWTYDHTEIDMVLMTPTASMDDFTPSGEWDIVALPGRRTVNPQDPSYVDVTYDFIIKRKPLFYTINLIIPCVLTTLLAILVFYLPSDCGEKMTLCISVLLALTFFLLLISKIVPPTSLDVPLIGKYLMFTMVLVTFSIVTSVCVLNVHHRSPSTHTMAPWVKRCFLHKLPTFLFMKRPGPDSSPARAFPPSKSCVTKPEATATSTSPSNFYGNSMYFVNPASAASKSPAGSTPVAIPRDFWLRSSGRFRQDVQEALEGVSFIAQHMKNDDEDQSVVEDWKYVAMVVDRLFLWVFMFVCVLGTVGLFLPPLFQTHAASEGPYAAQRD
Compound,effect on the dose response curve of Compound A ([1]; Compound 1 3.5 μmol/kg with various doses of Compound A),efficacy in neuropathic pain ([1]; administered alone),effect of the PAM on the concentration responses to the agonists [2],efficacy in neuropathic pain ([1]; Compound A 1 nmol/kg alone),efficacy in neuropathic pain ([1]; Compound A 1 nmol/kg combined with varying doses of Compound 1),mechanical paw withdrawal threshold (PWT) ([1]; Compound A co-administered with Compound 1 (PAM)) [g]
"N#Cc1cccc(-c2nc(-c3cccnc3)no2)c1 [Example 1, 3-(3-(pyridin-3-yl)-1,2,4-oxadiazol-5-yl)benzonitrile]",left-shifting the dose response curve of Compound A,ineffective,unable to affect the concentration responses to the agonists,–,–,–
"Clc1ccc(OC[C@H]2CCN2)cn1 [Compound A, 5-[(2R)-azetidin-2-ylmethoxy]-2-chloropyridine]",–,–,–,ineffective,dose-dependent increase in efficacy,12.1 ± 0.5
